Data as given in patent US8044100B2, “Methods and compositions for treating amyloid-related diseases” (Bellus Health Inc., priority 2004, dated 2011).

System: Aβ peptides (Aβ40, Aβ42) in the plasma and brain of TgCRND8 mice
Experiment: Short term treatment (14 or 28 days) in TgCRND8 mice: Aβ levels in plasma and brain by ELISA;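 as to Aβ40 Change Insoluble: symbols grade percent change in Aβ versus untreated control with plus for increase and minus for decrease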;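 as to Aβ40 Change Soluble: symbols grade percent change in Aβ versus untreated control with plus for increase and minus for decrease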;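 as to Aβ42 Change Insoluble: symbols grade percent change in Aβ versus untreated control with plus for increase and minus for decrease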
Assay type: in vivo, mouse
Settings: for Aβ40 Change Insoluble / Aβ40 Change Soluble / Aβ42 Change Insoluble / Aβ42 Change Soluble: brain homogenate; for Aβ40 Change / Aβ42 Change: plasma
Procedure: The short term therapeutic effect of 19 compounds of the invention was studied. These compounds were administered over a 14 or 28 day period at the end of which the levels of Aβ peptides in the plasma and brain of TgCRND8 animals were determined.
Male and female transgenic mice from the 3rd and 4th B6C3F1 generations were used in this example and given daily subcutaneous or oral administrations of one of a series of compounds for 14 or 28 days. The following abbreviations are used to designate these animals from the 3rd and 4th generation backcross in the present protocol: TgCRND8-2.B6C3F1(N3); TgCRND8-2.B6C3F1 (N4).
Baseline animals (Group 1) consisted of naive TgCRND8-2. B6C3F1(N3) at 11±1 weeks of age. These mice were used to determine the Aβ levels in the plasma and brain of naive transgenic animals at the initiation of treatment.
Starting at 11 weeks of age (±1 week) animals received daily administration of their respective treatment for a period of 14 or 28 days (groups 2-21), at a dose of 250 mg/kg at 10 ml/kg or of vehicle only (water; group 2) or 1% methyl cellulose only (group 21). The route of administration was subcutaneous for water-soluble compounds and oral for compounds solubilized in methylcellulose 1%. (MC 1%). At the end of the treatment periods, plasma and perfused brains were collected for quantification of Aβ levels.
At 11±1 weeks of age for the Baseline group, and at the end of the treatment period (14 or 28 days) for Groups 2 to 21, at 24 hours after the last compound administration animals were sacrificed and samples collected. An approximate blood volume of 500 μl was collected from the orbital sinus and kept on ice until centrifugation at 4° C. at a minimum speed of 3,000 rpm for 10 minutes. Plasma samples were immediately frozen and stored at −80° C. pending analysis. The brains were removed, frozen, and stored at −80° C. awaiting analysis.
Brains were weighted frozen and homogenized with 4 volumes of ice cold 50 mM Tris-Cl pH 8.0 buffer with protease inhibitor cocktail (4 mL of buffer for 1 g of wet brain). Samples were spun at 15000 g for 20 minutes and the supernatants were transferred to fresh tubes. One hundred fifty (150) μl from each supernatant were mixed with 250 μl of 8M guanidine-HCL/50 mM Tris-HCL pH 8.0 (ratio of 0.6 vol supernatant:1 vol 8M guanidium/Tris-HCL 50 mM pH8.0) and 400 μL 5 M guanidium/Tris-HCL 50 mM pH8.0 were added. The tubes were vortexed for 30 seconds and frozen at −80° C. In parallel, pellets were treated with 7 volumes of 5 M guanidine-HCL/50 mM Tris-HCL pH 8.0 (7 mL of guanidine for 1 g of wet brain), vortexed for 30 seconds and frozen at −80° C. Samples were thawed at room temperature, sonicated at 80° C. for 15 minutes and frozen again. This cycle was repeated 3 times to ensure homogeneity and samples were returned to −80° C. pending analysis.
Aβ levels were evaluated in plasma and brain samples by ELISA using Human Aβ40 and Aβ42 Fluorometric ELISA kits from Biosource (Cat. No. 89-344 and 89-348) according to manufacturer's recommended procedures. In short, samples were thawed at room temperature, sonicated for 5 minutes at 80° C. (sonication for brain homogenates; no sonication for plasma samples) and kept on ice. Aβ peptides were captured using 100 μl of the diluted samples to the plate and incubated without shaking at 4° C. overnight. The samples were aspirated and the wells were rinsed 4 times with wash buffer obtained from the Biosource ELISA kit. The anti-Aβ40 or anti-Aβ42 rabbit polyclonal antiserum (specific for the Aβ40 or Aβ42 peptide) was added (100 μl) and the plate was incubated at room temperature for 2 hours with shaking. The wells were aspirated and washed 4 times before adding 100 μl of the alkaline phosphatase labeled anti-rabbit antibody and incubating at room temperature for 2 hours with shaking. The plates were then rinsed 5 times and the fluorescent substrate (100 μl) was added to the plate. […]

[1] = Day 14, vehicle group, 250 mg/kg daily
[2] = Day 28, vehicle group, 250 mg/kg daily
[3] = Day 14, vehicle (water) group, 250 mg/kg daily subcutaneous
[4] = Day 14, methylcellulose group, daily oral
[5] = Day 28, methylcellulose group, daily oral

Row | SMILES | levels of Aβ peptides in the plasma (after 14 and 28 days of treatment) | Aβ40 Change Insoluble [1] | Aβ40 Change Soluble [1] | Aβ42 Change Insoluble [1] | Aβ42 Change Soluble [1] | Aβ40 Change Insoluble [2] | Aβ40 Change Soluble [2] | Aβ42 Change Insoluble [2] | Aβ42 Change Soluble [2] | Aβ40 Change [3] | Aβ42 Change [3] | Aβ40 Change (Day 28, vehicle (water) group, 250 mg/kg daily subcutaneous) | Aβ40 Change Insoluble [4] | Aβ42 Change Insoluble [4] | Aβ42 Change Soluble [4] | Aβ40 Change Insoluble [5] | Aβ40 Change Soluble [5] | Aβ42 Change Insoluble [5] | Aβ42 Change Soluble [5] | Aβ42 Change [5]
1 | CC(C)(C)NCCCS(=O)(=O)O [BX, 3-(t-butyl)amino-1-propanesulfonic acid] | significant increase | −−− (decreases of 39% or more) | − (Decreases in the levels of Aβ of 5 to 19%) | −−− (decreases of 39% or more) | −− (decreases of 20 to 38%) | −−− (decreases of 39% or more) | −−− (decreases of 39% or more) | − (Decreases in the levels of Aβ of 5 to 19%) | −− (decreases of 20 to 38%) | +++ (increases of 70% or higher) | ++ (increases of 40 to 69%) | +++ (increases of 70% or higher) |  |  |  |  |  |  |  | 
2 | O=S(=O)(O)CCCNC12CC3CC(CC(C3)C1)C2 [BW] |  |  |  |  |  |  |  |  |  |  |  |  | −−− (decreases of 39% or more) | −−− (decreases of 39% or more) | −− (decreases of 20 to 38%) | − (Decreases in the levels of Aβ of 5 to 19%) | − (Decreases in the levels of Aβ of 5 to 19%) | −− (decreases of 20 to 38%) | − (Decreases in the levels of Aβ of 5 to 19%) | + (increases in the levels of Aβ (relative to untreated control) of 20 to 39%)
